How the values were obtained:
[1] = Precipitation observed in displacer/BSA/p-cresol solutions; assay type: physicochemical
Experimental: The mixed solutions were centrifuged to remove protein at 5700 rpm for 70 minutes at room temperature before analysis. The pH was adjusted to 7 (physiological pH) by addition of NaOH to the samples. The samples were injected into a HPLC. The measurement of p-cresol by HPLC analysis was performed at room temperature.
The influence of the pH value on the binding affinity of the p-cresol and the binding competitors to the bovine serum albumin (BSA) was investigated. […] The pH was adjusted by adding sodium hydroxide (NaOH) or hydrochloric acid (HCl). The tests were performed with the following displacer substances: sodium salicylate, sodium octanoate and sodium acetylsalicylate. […] At pH 5 the albumin exists in the N form. The results are present in Table 4

[2] = biological target: T1, bovine serum albumin (BSA) (Bos taurus, UniProt P02769); assay: Removal of p-cresol from BSA by repeated addition of water and centrifugation; assay type: binding; conditions: pH 8
T1 construct: purchased Sigma-Aldrich
T1 sequence (P02769 25-607): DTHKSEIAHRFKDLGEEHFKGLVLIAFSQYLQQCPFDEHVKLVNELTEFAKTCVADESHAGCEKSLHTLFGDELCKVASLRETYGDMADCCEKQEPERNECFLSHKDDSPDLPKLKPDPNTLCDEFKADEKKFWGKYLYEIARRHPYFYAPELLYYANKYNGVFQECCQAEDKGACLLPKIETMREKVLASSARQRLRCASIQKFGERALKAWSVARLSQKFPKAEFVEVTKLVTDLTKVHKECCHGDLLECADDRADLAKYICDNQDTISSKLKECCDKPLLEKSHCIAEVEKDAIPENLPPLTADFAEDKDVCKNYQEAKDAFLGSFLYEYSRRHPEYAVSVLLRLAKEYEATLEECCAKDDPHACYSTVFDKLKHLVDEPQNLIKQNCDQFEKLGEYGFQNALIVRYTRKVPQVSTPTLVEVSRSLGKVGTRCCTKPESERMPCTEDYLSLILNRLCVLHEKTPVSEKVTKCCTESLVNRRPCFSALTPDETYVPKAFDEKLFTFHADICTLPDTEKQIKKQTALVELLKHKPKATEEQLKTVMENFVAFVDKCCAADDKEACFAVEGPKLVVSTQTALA
Experimental: The influence of water addition on the binding affinity of p-cresol to bovine serum albumin was investigated in this example, performed at room temperature. 1 ml of a solution comprising 0.02 mg/ml p-cresol and 40 mg/ml bovine serum albumin (BSA) was centrifuged (Visaspin®) for 20 minutes. 0.5 ml of the solution was removed and analysed.
0.5 ml water (Milli-Q quality) was added to the remaining 0.5 ml solution (p-cresol and BSA) and centrifuged (in Vivaspin®) for another 20 minutes before another 0.5 ml was removed for the analysis.
The previous experiment was repeated at elevated temperature. A 1 ml solution containing 0.02 mg/ml p-cresol and 40 mg/ml bovine serum albumin (BSA), pH 8, was centrifuged (Vivaspin®) at 50° C. for 20 minutes until 0.5 ml was removed and analysed. Then 0.5 ml water (Milli-Q) was added to the remaining 0.5 ml solution comprising p-cresol and BSA, centrifuged for 20 minutes until 0.5 ml was removed for the analysis.

Compound: CCCCCCCC(=O)[O-].[Na+] [sodium octanoate]
- precipitation ([1]; sodium octanoate 100 mg/ml and 200 mg/ml, pH 6): Precipitation occurred
- precipitation ([1]; sodium octanoate with BSA and p-cresol, pH 5): precipitation of the solution was observed

Compound: Cc1ccc(O)cc1 [p-cresol]
- p-cresol considered unbound ([2]; after addition of 5 ml water, 50° C.): About 100%
- added p-cresol removed from the binding sites on BSA ([2]; water addition repeated 16 times, room temperature): ~100%
- calculated amount of p-cresol removed ([2]; water addition repeated 16 times, room temperature, 0.02 mg p-cresol added): 0.01989 mg
- measured amount of p-cresol ([2]; water addition repeated 20 times, 50° C., more than the added amount): 0.027 mg

Compound: O=C([O-])c1ccccc1O.[Na+] [sodium salicylate]
- precipitation ([1]; sodium salicylate with BSA and p-cresol, pH 4): precipitation occurred

From US12186467B2, “Cleaning of biological fluid” (GAMBRO LUNDIA AB, priority 2012, dated 2025)
